This is an account of results in ChEMBL document CHEMBL1240454, “1,3-Dioxolane-based ligands incorporating a lactam or imide moiety: structure-affinity/activity relationship at alpha1-adrenoceptor subtypes and at 5-HT1A receptors” (Eur J Med Chem, 2010).

One may read the Emax as the greatest response seen or fitted, relative to the assay's reference. In general, pKb refers to −log10 of the Kb, conventionally taken in molar units. What is called Ki is the dissociation constant of the complex between target and ligand, obtained from inhibition or displacement. High values mean weaker binding, low ones tighter binding.

In assay [1] the target is T1, 5-hydroxytryptamine receptor 1A (Homo sapiens) (UniProt P08908).
T1 sequence (whole entry): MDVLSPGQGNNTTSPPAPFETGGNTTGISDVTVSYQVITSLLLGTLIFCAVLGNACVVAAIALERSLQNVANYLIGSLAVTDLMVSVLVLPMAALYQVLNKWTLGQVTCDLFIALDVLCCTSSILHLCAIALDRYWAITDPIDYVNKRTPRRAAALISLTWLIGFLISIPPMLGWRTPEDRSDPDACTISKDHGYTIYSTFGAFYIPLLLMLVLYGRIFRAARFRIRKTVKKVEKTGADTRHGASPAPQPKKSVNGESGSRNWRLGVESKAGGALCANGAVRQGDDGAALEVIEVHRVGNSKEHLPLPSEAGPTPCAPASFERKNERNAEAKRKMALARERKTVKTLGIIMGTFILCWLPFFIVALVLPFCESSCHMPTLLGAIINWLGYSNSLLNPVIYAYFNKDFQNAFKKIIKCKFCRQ
The experiment in a line: Agonist activity at human cloned 5HT1A receptor expressed in human HeLa cells assessed as stimulation of [35S]GTPgammaS binding after 20 mins by liquid scintillation counting relative to maximal 5HT response. The class given is functional, cell-based. Background: Binding of GTPγS marks nucleotide exchange on a G protein.

Assay [2] deals with T2, Alpha-1D adrenergic receptor (Rattus norvegicus) (UniProt P23944).
T2 sequence (whole entry): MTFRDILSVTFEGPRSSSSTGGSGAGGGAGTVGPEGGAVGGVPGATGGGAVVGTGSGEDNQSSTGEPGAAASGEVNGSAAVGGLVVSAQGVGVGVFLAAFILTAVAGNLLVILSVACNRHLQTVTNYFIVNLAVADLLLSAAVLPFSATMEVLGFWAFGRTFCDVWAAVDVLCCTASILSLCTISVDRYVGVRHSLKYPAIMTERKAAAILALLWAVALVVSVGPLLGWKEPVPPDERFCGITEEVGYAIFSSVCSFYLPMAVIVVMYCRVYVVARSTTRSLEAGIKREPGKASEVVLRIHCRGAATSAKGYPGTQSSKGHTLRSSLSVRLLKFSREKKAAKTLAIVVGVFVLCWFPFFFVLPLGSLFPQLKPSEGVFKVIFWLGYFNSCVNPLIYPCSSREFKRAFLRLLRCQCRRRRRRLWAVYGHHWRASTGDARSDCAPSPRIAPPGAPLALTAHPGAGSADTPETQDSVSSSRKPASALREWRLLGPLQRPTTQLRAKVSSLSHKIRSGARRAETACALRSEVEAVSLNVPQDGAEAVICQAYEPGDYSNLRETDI
The assay can be described thus: Antagonist activity at adrenergic Alpha-1D receptor in Wistar rat thoracic aorta assessed as inhibition of (-)-norepinephrine-induced vasocontraction treated 30 mins before (-)norepinephrine challenge. The class given is functional, tissue-based.

The species named for a further assay is Rattus norvegicus. The experiment in a line: Selectivity for adrenergic Alpha-1B receptor in Wistar rat spleen over adrenergic alpha1D receptor in Wistar rat thoracic aorta. The class given is tissue-based.
Assay [3] concerns the target T1, 5-hydroxytryptamine receptor 1A (Homo sapiens). The assay can be described thus: Agonist activity at human cloned 5HT1A receptor expressed in human HeLa cells assessed as stimulation of [35S]GTPgammaS binding after 20 mins by liquid scintillation counting. The class given is functional, cell-based.
Assay [4] concerns the target T3, Alpha-1A adrenergic receptor (Rattus norvegicus) (UniProt P43140).
T3 sequence (whole entry): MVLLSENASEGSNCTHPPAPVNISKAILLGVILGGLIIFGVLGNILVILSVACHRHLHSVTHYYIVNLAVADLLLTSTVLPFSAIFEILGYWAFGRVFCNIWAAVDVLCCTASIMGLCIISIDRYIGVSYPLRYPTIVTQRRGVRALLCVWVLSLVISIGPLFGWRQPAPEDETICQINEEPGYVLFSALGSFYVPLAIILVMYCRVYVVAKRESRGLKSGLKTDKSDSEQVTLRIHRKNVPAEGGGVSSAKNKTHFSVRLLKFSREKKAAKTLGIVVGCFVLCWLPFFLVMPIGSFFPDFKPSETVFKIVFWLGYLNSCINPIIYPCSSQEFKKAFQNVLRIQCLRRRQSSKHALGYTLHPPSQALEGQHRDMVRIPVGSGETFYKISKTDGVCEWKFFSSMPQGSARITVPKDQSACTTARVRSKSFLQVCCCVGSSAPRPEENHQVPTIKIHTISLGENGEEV
The experiment in a line: Antagonist activity at adrenergic alpha1A receptor in Wistar rat prostatic vas deferens assessed as inhibition of (-)-noradrenaline-induced tissue contraction treated 30 mins before (-)noradrenalin challenge. The class given is functional, tissue-based.

For assay [5], the target named is T1, 5-hydroxytryptamine receptor 1A (Homo sapiens). The settings on record: HeLa.
Assay [6] is described as follows: Selectivity for adrenergic alpha1 receptor over 5HT1A receptor.
Assay [7] addresses T4, 5-hydroxytryptamine receptor 1A (Homo sapiens, UniProt P08908).
T4 sequence (P08908 whole entry): T1 sequence (whole entry)
The experiment in a line: Binding affinity to 5HT1A receptor.

With `COc1ccccc1N1CCN(C[C@H]2CO[C@@](CN3C(=O)CC4(CCCC4)CC3=O)(c3ccccc3)O2)CC1` (relative stereo), the maximal response (Emax) in assay [1] was determined as 49%. The pKb in assay [2] came out at 6.78; in assay [4] it was 7.72. The Selectivity ratio in the assay listed under Rattus norvegicus worked out at 0.2. Further, the pD2 in assay [3] was 7.8.

On to `COc1ccccc1N1CCN(C[C@H]2CO[C@@](CN3C(=O)CCC3=O)(c3ccccc3)O2)CC1` (relative stereo), for which, in assay [1], the Emax was found to be 45%. In addition, the pKb came out at 6.42 in assay [2] and 7.45 in assay [4]. In addition, the Selectivity ratio in the assay filed under Rattus norvegicus was 0.2. In addition, in assay [3], the pD2 came to 7.05.

As to `COc1ccccc1N1CCN(C[C@H]2CO[C@@](CN3C(=O)CCCC3=O)(c3ccccc3)O2)CC1` (relative stereo), the Emax in assay [1] came to 34%. The pKb worked out at 6.19 in assay [2] and 7.09 in assay [4]. Besides, the Selectivity ratio in the assay filed under Rattus norvegicus stood at 0.1. Besides, in assay [3], the pD2 is 7.23.

`COc1ccccc1N1CCN(C[C@H]2CO[C@](CN3CCCC3=O)(c3ccccc3)O2)CC1` (relative stereo): the pKb in assay [5] worked out at 7.16; in assay [2], 6.79; in assay [4], 7.94. For the same compound, the Selectivity ratio in the assay listed under Rattus norvegicus amounted to 0.03.

For `COc1ccccc1N1CCN(C[C@@H]2CO[C@@](CN3C(=O)CCCC3=O)(c3ccccc3)O2)CC1` (relative stereo), the negative-log Kb (pKb) in assay [2] was determined as 7.57; in assay [4], 7.36. In addition, the Selectivity ratio in the assay filed under Rattus norvegicus came out at 2.

On to `COc1ccccc1N1CCN(C[C@@H]2CO[C@](CN3CCCC3=O)(c3ccccc3)O2)CC1` (relative stereo), for which, in assay [1], the maximum response (Emax) amounted to 34%. Further, the results for the pKb in assay [2] and in assay [4] were 7.43 and 7.34, respectively. Further, the Selectivity ratio in the assay filed under Rattus norvegicus is 0.1. Also, the pD2 in assay [3] turned out to be 7.14.

On to `COc1ccccc1N1CCN(CC2OCC(c3ccccc3)(c3ccccc3)O2)CC1` (centres undefined), for which the Selectivity ratio in assay [6] came out at 100; in the assay listed under Rattus norvegicus, 28. The maximal effect (Emax) in assay [1] turned out to be 16%. Further, the pKb in assay [2] was determined as 8.14; in assay [4], 8.24. The pD2 in assay [3] came to 8.3. This compound showed a Ki in assay [7] of 15.1 nM.

For the compound `COc1ccccc1N1CCN(C[C@@H]2CO[C@@](CN3C(=O)CCC3=O)(c3ccccc3)O2)CC1` (relative stereo), the negative logarithm of the Kb (pKb) in assay [2] was 7.78; in assay [4], 7.32. The Selectivity ratio in the assay filed under Rattus norvegicus came to 5.

As to `COc1ccccc1N1CCN(C[C@H]2CO[C@@](CN3CCCCC3=O)(c3ccccc3)O2)CC1`, the pKb in assay [5] was 7.38; in assay [2], 6.74; in assay [4] it was 7.3. In addition, the Selectivity ratio in the assay filed under Rattus norvegicus was 0.06.

`COc1ccccc1N1CCN(C[C@@H]2CO[C@@](CN3CCCCC3=O)(c3ccccc3)O2)CC1` (relative stereo): the negative logarithm of the Kb (pKb) worked out at 7.39 in assay [5], 7.29 in assay [2] and 7.32 in assay [4]. For the same compound, in the assay listed under Rattus norvegicus, the Selectivity ratio was determined as 0.1.

Regarding `COc1ccccc1N1CCN(C[C@@H]2CO[C@@](CN3CCCCCC3=O)(c3ccccc3)O2)CC1` (relative stereo), the Emax in assay [1] is 39%. In addition, the negative logarithm of the Kb (pKb) in assay [2] came out at 7.75; in assay [4], 7.18. In the assay listed under Rattus norvegicus, the Selectivity ratio stood at 0.5. Further, the pD2 in assay [3] came out at 6.57.

As to `COc1ccccc1N1CCN(C[C@H]2CO[C@@](CN3CCCCCC3=O)(c3ccccc3)O2)CC1` (relative stereo), the results for the negative-log Kb (pKb) in assay [5], in assay [2] and in assay [4] were 7.25, 7.57 and 8.97, respectively. For the same compound, in the assay filed under Rattus norvegicus, the Selectivity ratio is 0.1.

With `COc1ccccc1N1CCN(C[C@@H]2CO[C@@](CN3C(=O)CC4(CCCC4)CC3=O)(c3ccccc3)O2)CC1` (relative stereo), the Emax in assay [1] was found to be 60%. The pKb in assay [2] was found to be 8.51; in assay [4], 7.29. Further, the Selectivity ratio in the assay listed under Rattus norvegicus came out at 11. Besides, the pD2 in assay [3] amounted to 7.98.
